The values that follow come from paper PMC10800023 (Human Molecular Genetics, 2023).

The nature of series [1]: MDCK control cell permeability (not transfected with human P-gp). The following applies: dog, pH 7.4. As to the method: (§1) To measure transport by P-gp, Madin-Darby canine kidney (MDCK) cells that had been transfected with the human P-gp (MDR1) gene were plated in a Transwell plate and cultured until polarized. MDCK cells that are not transfected with human P-gp were used as a control. Compounds were added to either the apical or the basolateral side of the cells, and transport across the membrane was measured.
(§2) Testing for permeability and MDR1 substrate assessment was done in MDCK cells transfected to overexpress human MDR1 gene that encodes efflux transporter protein (P-gp). […] Briefly, cells were maintained in Dulbecco’s modified Eagle medium (DMEM) with 10% fetal bovine serum and 1% penicillin/streptomycin in a humidified incubator at 37°C with 5% CO2. The study was performed by Absorption Systems (now Pharmaron; Exton, PA). The MDR1-MDCK and MDCK control cell lines were seeded into 12-well plates for 7 days. Integrity of monolayer tight junctions was monitored preincubation by transepithelial electrical resistance (TEER) measurement. […] The samples were withdrawn at t = 0 and 60 min from the receiver and donor compartments. Compound levels were measured by LC/MS–MS. Additionally, post-assay, cell monolayer integrity was checked with Lucifer Yellow permeability measurement. Transport assay low- and high-permeability control compounds were run in parallel for assay validation. Papp values were calculated considering compound concentrations across the monolayer and cell surface area. Efflux ratios were calculated based on Papp B > A over Papp A > B. The difference between the MDR1-MDCK and the MDCK cell efflux ratios was also calculated. […] Compounds were classified by Absorption Systems/Pharmaron as follows: […]

The next series concerns B10-mdx mice. The series can be described thus: Four-limb grip strength (Study 2). Conditions: 4 weeks of treatment, not complete, not dose dependent. The class given is in vivo, mouse. As to the method:
After 4 weeks of treatment, muscle strength was evaluated using a grip strength meter.
Study 2: The goal of the second study was to evaluate corticosteroid side effects and efficacy in a longer study (4 months). After 28 days of dosing, mice were tested for depression-like behavior using a measure of corticosteroid-induced depression (FST followed by TST). Muscle function was tested via grip strength. Tests for depression and for grip-strength were done in a blinded manner. After 4 months, mice were euthanized, and tissues were collected. Bone from whole left leg was collected for micro-CT analysis. The number of animals per group was as follows: WT, n = 16; B10-mdx, n = 15; corticosteroid-treated groups, n = 8–10.
A four-limb grip strength meter from Bioseb was used to determine the maximal peak force (g) developed by the mouse when the examiner tried to pull it out of a specially designed grid for mice (Bioseb, BIO-GS3 & BIO-GRIPGS). The examiner was blinded, and a total of 5 measurements were applied to each mouse, 1–2 min between measurements. The average of the 5 values was used for subsequent calculations.

For series [2] the following is noted: DBA/2 J, mouse, in vivo.
Procedure: (§3) The brain-to-plasma ratio was then calculated using the area under the curve (AUC) for brain exposure and the AUC for plasma exposure.
In series [3] the test system is C57BL/6 mice. The series can be described thus: Tail-suspension test in WT mice after 35 days (Study 3). The class given is in vivo, mouse. The following applies: daily for 35 days, prednisolone 15 mg/kg or vamorolone 45 mg/kg. On the procedure:
In the CNS of these miceFkbp5 mRNA and Ddrd4 mRNA levels were increased (Supplementary Fig. S3d and e). Expression of FKBP5 is reported to be GRE regulated, and Drd4 is a reported biomarker of depression.
• 1) Force-swim test: Animals were single housed and acclimated in the behavior room for 30 min prior to test. A clean 1-L beaker was filled with 700 to 800 ml of 23°C water. Each mouse was placed into the water for 6 min. The total immobility time was recorded. After the test, the animals were dried and placed in a cage on a heating pad for about 10 min before returning to the home cages. • 2) Tail-suspension test: Isolated mice were suspended 50 cm above the floor by surgical tape placed approximately 1 cm from the tip of the tail for 6 min. The total immobility time of mice was measured. Mice were considered immobile only when they hung passively and completely motionless.

Series [4] can be described thus: Published PK data in patients. Conditions: in vivo, oral, human, 0.75 mg/kg, extrapolated assuming linear increase from the lower dose. From the text:
^a Conklin […] JM, Hoffman EP, Jusko WJ, Mavroudis PD, Schwartz BD, […] LJ, Smith EC, Mah JK, Guglieri M, Nevo Y, Kuntz N, McDonald CM, Tulinius M, Ryan MM, Webster R, Castro D, Finkel RS, Smith AL, Morgenroth […], Jaros M, Shale […] JM, […], Ward […], Cornish MR, Clemens PR. […] Epub 2018 Sep 13. PMID: 30219580; PMCID: PMC6218284. […] Bashar T, Apu […]. […] Dose Response. 2018 Jul 25;16(3):1559325818783932. doi: 10.1177/1559325818783932. PMID: 30083083; PMCID: PMC6073839. ^c Assumed linear increase in AUC and Cmax from 0.25 to 0.75 mg/kg. This may be an overestimate. However, there is support for linearity in Al-Habet S, Rogers HJ. Pharmacokinetics of intravenous and oral prednisolone. Br J Clin Pharmacol. 1980 Nov;10(5):503-8. doi: 10.1111/j.1365-2125.1980.tb01796.x. PMID: 7437263; PMCID: PMC1430141. ^d https://www.accessdata.fda.gov/drugsatfda_docs/nda/2017/208684,208685[…]

The next series concerns MDCK cells. Put plainly: MDCK control cell permeability (not transfected with human P-gp). The following applies: 1 μM. On the procedure: as §1, §2
The test system of series [5] is C57BL/6 mice. Put plainly: RT-qPCR of brain mRNA in WT mice (Study 3). The following applies: daily for 35 days, prednisolone 15 mg/kg or vamorolone 45 mg/kg. (In general: Real-time PCR tracks product formation cycle by cycle.)
Procedure: RNA concentration was measured by using Cytation 5 (BioTek).
Series [6] in a line: in vivo. The following applies: DBA/2 J, mouse, plasma, po.
Procedure: as §3
Series [7] can be described thus: in vivo. The following applies: C57BL/10, mouse, oral; for Kp: brain/plasma; for AUC / Cmax: plasma.
Series [8] can be described thus: Pharmacokinetics and brain/plasma biodistribution in WT DBA/2 J mice.
Procedure: as §3
Where [9] appears, read: 30 mg/kg oral gavage, DBA/2 J mice.

In the case of `CC(=O)OCC(=O)[C@@]12N=C(C)O[C@@H]1C[C@H]1[C@@H]3CCC4=CC(=O)C=C[C@]4(C)[C@H]3[C@@H](O)C[C@@]12C` [Deflazacort], in [1], the Papp A→B (as a rule, the apparent permeability from the apical to the basolateral side of a cell layer) at 60 min, 1 μM stood at 12.3 ×10⁻⁶ cm/s; the Papp A→B at 60 min, 10 μM came out at 6.66 ×10⁻⁶ cm/s; the apparent permeability from basolateral to apical (Papp B→A) (as a rule, how fast a substance crosses the layer from the basolateral side) at 60 min, 1 μM was 11.6 ×10⁻⁶ cm/s; the Papp B→A at 60 min, 10 μM was found to be 6.7 ×10⁻⁶ cm/s. Also, in series [1], the efflux ratio (usually a quotient of directional permeabilities that is used to spot active efflux) at 60 min, 1 μM was 0.949 and the efflux ratio at 60 min, 10 μM came to 1.01. Also, the grip strength result in the series with B10-mdx mice is “showed some protection from loss of grip strength”. Further, in [2], the “predicted AUC in mice” value is 446 ng·h/mL and the “predicted Cmax in mice” value is on record as 267.5 ng/mL.
With `C[C@]12C=CC(=O)C=C1CC[C@@H]1[C@@H]2[C@@H](O)C[C@@]2(C)[C@H]1CC[C@]2(O)C(=O)CO` [Prednisolone], the “depression-like behavior as measured by the TST” value in the series on C57BL/6 mice [3] is “induced depression-like behavior”. The Cmax – broadly, the maximum level reached in the sampled fluid or tissue – in series [4] was ~705 ng/mL. For the same compound, the AUC (in general, concentration integrated over time) in series [4] (read-out: AUC (Day 1)) was ~7070 ng·h/mL.
For `C[C@@H]1C[C@H]2[C@@H]3CCC4=CC(=O)C=C[C@]4(C)C3=CC[C@]2(C)[C@@]1(O)C(=O)CO` [Vamorolone], the “Apical to Basolateral MDCK” value with MDCK cells was 33.4 10 ^ −6 cm/s. Further, in series [1], the Papp A→B at 60 min, 10 μM came out at 33.4 ×10⁻⁶ cm/s; the apparent permeability from basolateral to apical (Papp B→A) at 60 min, 1 μM stood at 25.2 ×10⁻⁶ cm/s; the apparent permeability from basolateral to apical (Papp B→A) at 60 min, 10 μM amounted to 22.7 ×10⁻⁶ cm/s; the efflux ratio at 60 min, 1 μM stood at 0.755. In [1], the efflux ratio at 60 min, 10 μM was found to be 0.746. The “depression-like behavior as measured by the TST” value with C57BL/6 mice [3] is given as “induced depression-like behavior”. In the series on C57BL/6 mice [5], the “Ddrd4 mRNA levels in the CNS” value was “increased” and the “Fkbp5 mRNA levels in the CNS” value is “increased”. In the series “in vivo [6]” (15 mg/kg), this compound came in with an exposure (AUC) of 9350 ng·h/mL and a maximum concentration (Cmax) of 1980 ng/mL. In the series “in vivo [6]” (30 mg/kg), this compound gave an exposure (AUC) of 26600 ng·h/mL and a Cmax of 2700 ng/mL. Further, in “in vivo [6]” (45 mg/kg), the area under the curve (AUC) came to 34100 ng·h/mL and the Cmax came out at 3470 ng/mL. For the same compound, in “in vivo [7]” (5 mg/kg), the Kp – broadly, the ratio of the level in a tissue or fluid to that in plasma or blood – was 0.5; the area under the curve (AUC) is 2850 ng·h/mL; the Cmax stood at 818 ng/mL. In the series “in vivo [7]” (30 mg/kg), this compound had a concentration ratio (Kp) of 0.46, an area under the curve (AUC) of 33900 ng·h/mL and a Cmax of 8790 ng/mL. Besides, in series [8] (setting [9]), the “Brain AUC” value is given as 8070 h∙ng/g of tissue, the “Brain Cmax” value is 1825 ng/g of tissue, the “Brain/plasma ratio based on AUC” value is ~0.30 and the “Brain/plasma ratio based on Cmax” value is reported as ~0.68. Besides, the “fold higher exposure in the mouse (based on Cmax) than human clinical exposure” value in series [8] (15, 30, and 45 mg/kg in mouse vs 6 mg/kg/day in human) is 2–4 fold. Further, the Cmax in series [8] (mouse (DBA), 30 mg/kg) is 2700 ng/mL.
